Laboratory results as given in article PMC7555825, “New Insights of the Zn(II)-Induced P2 × 4R Positive Allosteric Modulation: Role of Head Receptor Domain SS2/SS3, E160 and D170” (International Journal of Molecular Sciences, 2020).

Columns and labels:
[1] = molecular target: T1, rP2 × 4R (Rattus norvegicus, UniProt P51577); experiment: Short protocol: Zn(II) potentiation of single 10 µM ATP-evoked currents before/after thiol reagent treatment, rP2 × 4R oocytes; type: cell-based; conditions: 10, 30, 100 µM DTT
T1 construct: host or cells: Xenopus laevis oocytes (intranuclear plasmid injection, pcDNA3)
T1 sequence (P51577 1-388): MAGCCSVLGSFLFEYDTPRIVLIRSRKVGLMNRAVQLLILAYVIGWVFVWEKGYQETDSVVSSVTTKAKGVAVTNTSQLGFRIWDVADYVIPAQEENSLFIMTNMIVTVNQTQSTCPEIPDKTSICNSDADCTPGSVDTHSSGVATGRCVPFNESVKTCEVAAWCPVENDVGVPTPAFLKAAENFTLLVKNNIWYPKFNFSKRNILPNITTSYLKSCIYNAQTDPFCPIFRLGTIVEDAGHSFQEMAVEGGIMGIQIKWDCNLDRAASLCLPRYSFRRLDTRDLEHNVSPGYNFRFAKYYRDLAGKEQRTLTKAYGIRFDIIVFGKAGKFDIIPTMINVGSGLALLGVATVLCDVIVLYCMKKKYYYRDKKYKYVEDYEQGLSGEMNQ

[2] = system: oocytes; experiment: Toxicity of DTT to oocytes (loss of holding potential); type: cell-based, Xenopus laevis; conditions: DTT concentrations larger than 100 µM; holding potential lost
Protocol: Larger DTT concentrations were toxic since the oocyte holding potential was lost, a likely acute toxicity indication.
(§1) After 10 min of washout we applied 300 µM NEM + 10 µM DTT.

[3] = molecular target: T1, rP2 × 4R; experiment: Short protocol: Zn(II) potentiation of single 10 µM ATP-evoked currents before/after thiol reagent treatment, rP2 × 4R oocytes; type: cell-based; conditions: for effect of alkylator plus Zn(II) treatment on Zn(II)-induced potentiation: 300 µM alkylator + 10 µM Zn(II)
Protocol: (§2) A simpler and shorter assay to test the Zn(II) potentiation was developed to better assess the loss of Zn(II) modulation elicited by the joint co-treatment of NEM plus Zn(II). […] Ten minutes after alkylator washout, cells were treated with Zn(II) plus NEM or iodoacetamide (IA) for 5 min followed by 20 min of alkylator washout. Next, the P2 × R was tested again to examine the magnitude of the Zn(II) potentiation.
(§3) After 10 min of washout we applied 300 µM NEM, 300 µM IA, 300 µM IAc, or 300 µM DTNB for 5 min in absence or presence of Zn(II) (10 µM for rP2 × 4R and 30 µM for rP2 × 2R).
as §1

[4] = molecular target: T1, rP2 × 4R; set-up: method as in PMID 17962187; conditions: treatment in the absence of Zn(II); cited from earlier work
[5] = molecular target: T2, rP2 × 2R (Rattus norvegicus, UniProt P49653); experiment: Short protocol: Zn(II) potentiation of single 10 µM ATP-evoked currents before/after thiol reagent treatment, rP2 × 2R oocytes; type: cell-based; set-up: expressed in transfected cells; host or cells: Xenopus laevis oocytes (intranuclear plasmid injection); conditions: for effect of alkylator plus Zn(II) treatment on Zn(II) potentiation/modulation: 300 µM alkylator + 30 µM Zn(II), 5 min, 20 min washout
T2 sequence (P49653 1-472): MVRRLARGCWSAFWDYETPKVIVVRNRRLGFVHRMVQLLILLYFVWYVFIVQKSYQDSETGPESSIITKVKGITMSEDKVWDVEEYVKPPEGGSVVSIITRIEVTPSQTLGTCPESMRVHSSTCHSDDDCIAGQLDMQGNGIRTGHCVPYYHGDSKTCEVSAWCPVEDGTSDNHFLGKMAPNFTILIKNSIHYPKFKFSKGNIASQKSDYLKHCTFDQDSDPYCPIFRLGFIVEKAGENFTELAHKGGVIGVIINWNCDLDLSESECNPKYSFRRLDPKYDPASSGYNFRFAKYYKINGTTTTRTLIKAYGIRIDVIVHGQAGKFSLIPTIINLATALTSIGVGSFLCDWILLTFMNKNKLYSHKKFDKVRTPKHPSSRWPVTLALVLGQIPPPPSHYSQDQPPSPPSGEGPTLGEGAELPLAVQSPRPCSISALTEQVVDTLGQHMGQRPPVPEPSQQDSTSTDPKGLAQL
Protocol: as §2, §3

[6] = molecular target: T1, rP2 × 4R; experiment: ATP concentration–response curves, two-electrode voltage clamp in oocytes expressing wild type rP2 × 4R; type: cell-based; conditions: NEM plus Zn(II) treatment; irreversible alkylation

## O[C@@H](CS)[C@@H](O)CS (racemic) [DTT, dithiothreitol]
[1]
  potentiation of 10 µM ATP-evoked currents by co-applied DTT: neither 10, 30, nor 100 µM DTT potentiated the ATP-evoked currents
[2]
  toxicity to oocytes: toxic
[3]; after combined 10 µM DTT plus 300 µM NEM treatment, 5 min, 20 min washout
  fold enhancement of ATP-evoked currents after treatment: 3.9 ± 1.2 fold

## O=C(O)c1cc(SSc2ccc([N+](=O)[O-])c(C(=O)O)c2)ccc1[N+](=O)[O-] [DTNB, 5,5’-dithiobis-(2-nitrobenzoic) acid]
[3]; 5 min, 20 min washout
  effect of alkylator plus Zn(II) treatment on Zn(II)-induced potentiation: neither of the reagents blocked

## C[N+](C)(C)CCSS(C)(=O)=O [MTSET, 2-(trimethylammonium)ethyl methanethiosulfonate]
[4]
  effect of MTSET treatment on Zn(II) potentiation: diminish the Zn(II) potentiation

## O=C(O)CI [IAc, Iodoacetate]
[3]; 5 min, 20 min washout
  effect of alkylator plus Zn(II) treatment on Zn(II)-induced potentiation: neither of the reagents blocked

## NC(=O)CI [IA, Iodoacetamide]
[5]
  effect of alkylator plus Zn(II) treatment on Zn(II) potentiation/modulation: annulled the Zn(II) potentiation
[5]; after IA + 30 µM Zn(II) treatment
  fold enhancement of ATP-evoked currents after treatment: 8.6 ± 3.3 fold
[3]; 300 µM IA + 10 µM Zn(II), 5 min, 20 min washout
  ATP-evoked currents after IA plus Zn(II) treatment: not increased
[3]; 5 min, 20 min washout
  effect of alkylator plus Zn(II) treatment on Zn(II)-induced potentiation: abolished the Zn(II)-induced potentiation

## CCN1C(=O)C=CC1=O [NEM, N-ethylmaleimide]
[5]
  effect of alkylator plus Zn(II) treatment on Zn(II) potentiation/modulation: Did Not Annul
[5]; after NEM + 30 µM Zn(II) treatment
  fold enhancement of ATP-evoked currents after treatment: 3.3 ± 0.5 fold
[6]
  time the lack of metal potentiation endured after NEM treatment: at least 1 h
[3]; 10 µM ATP, after 300 µM NEM plus 10 µM Zn(II) treatment, vs first ATP current
  fold increase of ATP-evoked currents after treatment: 4.0 ± 1.0 fold
[3]; 5 min, 20 min washout
  effect of alkylator plus Zn(II) treatment on Zn(II)-induced potentiation: abolished the Zn(II)-induced potentiation
